Pest or weed control data for eight compounds are collected here from patent publication US20230077362A1 (CORTEVA AGRISCIENCE LLC, priority 2019, published 2023).

The structures appear in SMILES notation.

Experiment [1] deals with Beet Armyworm (Spodoptera exigua) ("BAW"), second instar larvae. The experiment can be described thus: Bioassay on beet armyworm (BAW), 128-well diet tray assay. The format is in vivo. Conditions: Spodoptera exigua, read-out: BAW rating. In a few lines:
(§1)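 Each value represents average percent mortality from eight wells. Larvae were kept in clear-covered trays at 25° C. for five to seven days on a 14-hour light, 10-hour dark schedule before scoring.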

For experiment [2], the system named is Cabbage Looper (Trichoplusia ni) ("CL"), second instar larvae. The experiment can be described thus: Bioassay on cabbage looper (CL), 128-well diet tray assay. It is filed as in vivo. Conditions: Trichoplusia ni, read-out: CL rating. A digest of the protocol: as §1

In the case of `Cc1ccc(COCC(F)(F)F)c(N2C(=O)CS/C2=N\C(=O)Nc2ccc(-c3nc(-c4ccc(OC(F)(F)F)cc4)no3)cc2F)c1` [Compound J427, (Z)-1-(2-Fluoro-4-(3-(4-(trifluoromethoxy)phenyl)-1,2,4-oxadiazol-5-yl)phenyl)-3-(3-(5-methyl-2-((2,2,2-trifluoroethoxy)methyl)phenyl)-4-oxothiazolidin-2-ylidene)urea], the pest or weed control at 50 µg/cm2 in experiment [1] and in experiment [2] was 50 to 100% throughout.
As to `COC(c1ccc(C)cc1N1C(=O)CS/C1=N\C(=O)Nc1ccc(-c2nc(-c3ccc(OC(F)(F)F)cc3)no2)cc1F)C(F)(F)F` (stereo not shown) [Compound J428, (Z)-1-(2-Fluoro-4-(3-(4-(trifluoromethoxy)phenyl)-1,2,4-oxadiazol-5-yl)phenyl)-3-(3-(5-methyl-2-(2,2,2-trifluoro-1-methoxyethyl)phenyl)-4-oxothiazolidin-2-ylidene)urea], the pest or weed control at 50 µg/cm2 in experiment [1] and in experiment [2] was 50 to 100% throughout.
Regarding `COC(C)c1ccc(C)cc1N1C(=O)CS/C1=N\C(=O)Nc1ccc(-c2nnc(-c3ccc(OC(F)(F)F)cc3)o2)cc1F` (stereo not shown) [Compound J429, (Z)-1-(2-Fluoro-4-(5-(4-(trifluoromethoxy)phenyl)-1,3,4-oxadiazol-2-yl)phenyl)-3-(3-(2-(1-methoxyethyl)-5-methylphenyl)-4-oxothiazolidin-2-ylidene)urea], the pest or weed control at 50 µg/cm2 in experiment [1] and in experiment [2] was 50 to 100% throughout.
For `Cc1ccc(COCC(F)(F)F)c(N2C(=O)CS/C2=N\C(=O)Nc2ccc(-c3nnc(-c4ccc(OC(F)(F)F)cc4)o3)cc2F)c1` [Compound J430, (Z)-1-(2-Fluoro-4-(5-(4-(trifluoromethoxy)phenyl)-1,3,4-oxadiazol-2-yl)phenyl)-3-(3-(5-methyl-2-((2,2,2-trifluoroethoxy)methyl)phenyl)-4-oxothiazolidin-2-ylidene)urea], the pest or weed control at 50 µg/cm2 in experiment [1] and in experiment [2] was 50 to 100% in each case.
On to `CC(C)c1ccc(N(C)C)cc1N1C(=O)CS/C1=N\C(=O)Nc1ccc(-c2nnc(-c3ccc(OC(F)(F)F)cc3)o2)cc1F` [Compound J431, (Z)-1-(3-(5-(Dimethylamino)-2-isopropylphenyl)-4-oxothiazolidin-2-ylidene)-3-(2-fluoro-4-(5-(4-(trifluoromethoxy)phenyl)-1,3,4-oxadiazol-2-yl)phenyl)urea], for which the pest or weed control at 50 µg/cm2 in experiment [1] and in experiment [2] was 50 to 100% each time.
As for `CC(C)c1cc(F)c(N(C)C)cc1N1C(=O)CS/C1=N\C(=O)Nc1ccc(-c2nnc(-c3ccc(OC(F)(F)F)cc3)o2)cc1F` [Compound J432, (Z)-1-(3-(5-(Dimethylamino)-4-fluoro-2-isopropylphenyl)-4-oxothiazolidin-2-ylidene)-3-(2-fluoro-4-(5-(4-(trifluoromethoxy)phenyl)-1,3,4-oxadiazol-2-yl)phenyl)urea], the pest or weed control at 50 µg/cm2 in experiment [1] and in experiment [2] was 50 to 100% throughout.
`COC(c1ccc(C)cc1N1C(=O)CS/C1=N\C(=O)Nc1ccc(-c2nnc(-c3ccc(OC(F)(F)F)cc3)o2)cc1F)C(F)(F)F` (stereo not shown) [Compound J433, (Z)-1-(2-Fluoro-4-(5-(4-(trifluoromethoxy)phenyl)-1,3,4-oxadiazol-2-yl)phenyl)-3-(3-(5-methyl-2-(2,2,2-trifluoro-1-methoxyethyl)phenyl)-4-oxothiazolidin-2-ylidene)urea]: the pest or weed control at 50 µg/cm2 in experiment [1] and in experiment [2] was 50 to 100% throughout.
With `COC(C)c1ccc(C)cc1N1C(=O)CS/C1=N\C(=O)Nc1ccc(-c2nc(-c3ccc(OC(F)(F)F)cc3)no2)cc1F` (stereo not shown) [Compound J434, (Z)-1-(2-Fluoro-4-(3-(4-(trifluoromethoxy)phenyl)-1,2,4-oxadiazol-5-yl)phenyl)-3-(3-(2-(1-methoxyethyl)-5-methylphenyl)-4-oxothiazolidin-2-ylidene)urea], the pest or weed control at 50 µg/cm2 in experiment [1] and in experiment [2] was 50 to 100% throughout.
